Results published in PubChem BioAssay (NCI).
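Here, GI50 denotes the concentration required for 50% inhibition of growth. TGI is the concentration that stops growth completely.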

Columns and labels:
Experiment in all cases: NCI tumour cell line growth inhibition, 384-well format
[1] = test system: 786-0 renal
[2] = test system: A498 renal
[3] = test system: A549 NSCLC
[4] = test system: ACHN renal
[5] = test system: BT-549 breast
[6] = test system: CAKI-1 renal
[7] = test system: CCRF-CEM leukemia
[8] = test system: COLO 205 colon
[9] = test system: DU-145 prostate
[10] = test system: EKVX NSCLC
[11] = test system: HCC-2998 colon
[12] = test system: HCT-116 colon
[13] = test system: HCT-15 colon
[14] = test system: HL-60(TB) leukemia
[15] = test system: HOP-62 NSCLC
[16] = test system: HOP-92 NSCLC
[17] = test system: HS 578T breast
[18] = test system: HT29 colon
[19] = test system: IGROV1 ovarian
[20] = test system: K-562 leukemia
[21] = test system: KM12 colon
[22] = test system: LOX IMVI melanoma
[23] = test system: M14 melanoma
[24] = test system: MALME-3M melanoma
[25] = test system: MCF7 breast
[26] = test system: MDA-MB-231 breast
[27] = test system: MDA-MB-435 melanoma
[28] = test system: MDA-MB-468 breast
[29] = test system: MOLT-4 leukemia
[30] = test system: NCI-H226 lung
[31] = test system: NCI-H23 lung
[32] = test system: NCI-H322M lung
[33] = test system: NCI-H460 NSCLC
[34] = test system: NCI-H522 lung
[35] = test system: NCI/ADR-RES ovarian
[36] = test system: OVCAR-3 ovarian
[37] = test system: OVCAR-4 ovarian
[38] = test system: OVCAR-8 ovarian
[39] = test system: PC-3 prostate
[40] = test system: RPMI-8226 leukemia
[41] = test system: RXF 393 renal
[42] = test system: SF-268 CNS
[43] = test system: SF-295 CNS
[44] = test system: SF-539 CNS
[45] = test system: SK-MEL-28 melanoma
[46] = test system: SK-MEL-5 melanoma
[47] = test system: SK-OV-3 ovarian
[48] = test system: SN12C renal
[49] = test system: SNB-19 CNS
[50] = test system: SNB-75 CNS
[51] = test system: SR leukemia
[52] = test system: SW-620 colon
[53] = test system: T-47D breast
[54] = test system: TK-10 renal
[55] = test system: U251 glioblastoma
[56] = test system: UACC-257 melanoma
[57] = test system: UACC-62 melanoma
[58] = test system: UO-31 renal

SMILES: CCS(=O)(=O)Nc1ccc(Oc2ccc(F)cc2F)c(-c2cn(C)c(=O)c3[nH]ccc23)c1
- GI50 [1]: < 10 nM
- TGI [1]: 2120 nM
- GI50 [2]: 21 nM
- TGI [2]: 3250 nM
- GI50 [3]: 34.6 nM
- TGI [3]: 10600 nM
- GI50 [4]: 59.7 nM
- TGI [4]: 10100 nM
- GI50 [5]: < 10 nM
- TGI [5]: 172 nM
- GI50 [6]: < 10 nM
- TGI [6]: 475 nM
- GI50 [7]: < 10 nM
- TGI [7]: 353 nM
- GI50 [8]: < 10 nM
- TGI [8]: 724 nM
- GI50 [9]: 174 nM
- TGI [9]: 12500 nM
- GI50 [10]: 397 nM
- TGI [10]: 8660 nM
- GI50 [11]: < 10 nM
- TGI [11]: 40.4 nM
- GI50 [12]: 11.2 nM
- TGI [12]: 1450 nM
- GI50 [13]: < 10 nM
- TGI [13]: 1050 nM
- GI50 [14]: < 10 nM
- TGI [14]: < 10 nM
- GI50 [15]: < 10 nM
- TGI [15]: 337 nM
- GI50 [16]: 10.9 nM
- TGI [16]: 1520 nM
- GI50 [17]: < 10 nM
- TGI [17]: 14.5 nM
- GI50 [18]: < 10 nM
- TGI [18]: 11000 nM
- GI50 [19]: < 10 nM
- TGI [19]: 196 nM
- GI50 [20]: < 10 nM
- TGI [20]: 1970 nM
- GI50 [21]: 10 nM
- TGI [21]: 1270 nM
- GI50 [22]: < 10 nM
- TGI [22]: 14.4 nM
- GI50 [23]: 12.7 nM
- TGI [23]: 10200 nM
- GI50 [24]: 11.5 nM
- TGI [24]: 779 nM
- GI50 [25]: < 10 nM
- TGI [25]: 1180 nM
- GI50 [26]: < 10 nM
- TGI [26]: 2850 nM
- GI50 [27]: 140 nM
- TGI [27]: 11500 nM
- GI50 [28]: 10.4 nM
- TGI [28]: 429 nM
- GI50 [29]: < 10 nM
- TGI [29]: 124 nM
- GI50 [30]: < 10 nM
- TGI [30]: 796 nM
- GI50 [31]: 10.5 nM
- TGI [31]: 237 nM
- GI50 [32]: < 10 nM
- TGI [32]: 1610 nM
- GI50 [33]: 30.5 nM
- TGI [33]: 2140 nM
- GI50 [34]: < 10 nM
- TGI [34]: 114 nM
- GI50 [35]: 82.6 nM
- TGI [35]: 1810 nM
- GI50 [36]: < 10 nM
- TGI [36]: 156 nM
- GI50 [37]: < 10 nM
- TGI [37]: 79.3 nM
- GI50 [38]: < 10 nM
- TGI [38]: 131 nM
- GI50 [39]: 22.3 nM
- TGI [39]: 10200 nM
- GI50 [40]: < 10 nM
- TGI [40]: < 10 nM
- GI50 [41]: 308 nM
- TGI [41]: 2490 nM
- GI50 [42]: 67.4 nM
- TGI [42]: 2740 nM
- GI50 [43]: 120 nM
- TGI [43]: 4140 nM
- GI50 [44]: 27.2 nM
- TGI [44]: 3200 nM
- GI50 [45]: 50.2 nM
- TGI [45]: 2090 nM
- GI50 [46]: < 10 nM
- TGI [46]: 876 nM
- GI50 [47]: < 10 nM
- TGI [47]: 504 nM
- GI50 [48]: 24.8 nM
- TGI [48]: 3290 nM
- GI50 [49]: 40.7 nM
- TGI [49]: 12100 nM
- GI50 [50]: 112 nM
- TGI [50]: 5400 nM
- GI50 [51]: < 10 nM
- TGI [51]: < 10 nM
- GI50 [52]: 174 nM
- TGI [52]: 1950 nM
- GI50 [53]: 24.6 nM
- TGI [53]: 1430 nM
- GI50 [54]: < 10 nM
- TGI [54]: 384 nM
- GI50 [55]: 57.1 nM
- TGI [55]: 1800 nM
- GI50 [56]: 12.8 nM
- TGI [56]: 1890 nM
- GI50 [57]: < 10 nM
- TGI [57]: 583 nM
- GI50 [58]: 38.2 nM
- TGI [58]: 10300 nM
